Assay results published in patent US20260297060A1, “COMPOUNDS FOR THE DEGRADATION OF MUTANT BRAF” (C4 THERAPEUTICS, INC., priority 2023, published 2026).
Like-named read-outs stand apart in the source and are kept apart here.

Experiments:
BRAF V600E = target: T1, BRAF V600E (Homo sapiens, UniProt P15056+Q96SW2, V600E); assay: BRAF V600E HiBiT Degradation Assay; assay type: cell-based
T1 construct: knock-in of the HiBiT tag to the endogenous BRAF V600E locus; host or cells: A375.10 (A375 clonal line, CRISPR HiBiT knock-in at the endogenous BRAF V600E locus)
Procedure, shortened: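 Endogenous HiBiT knock-in on BRAF V600E in A375 cells (clone A375.10); 11-point half-log series, top 10 μM, 2, 6 or 24 h at 37° C. Lytic HiBiT luminescence, background-subtracted, normalized to DMSO; 4-parameter fit gives DC50, Emax (residual protein) and IP (inflection point).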

A375-NRAS^Q61K cells = assay: CTGlo Cell Viability Assay, A375-NRAS^Q61K (A375.11) cells, 96 hours; assay type: cell-based, human; conditions: A375.11 (A375-NRAS^Q61K) cells; for CTGlo A375.11 96 hours Emax / Emax: lowest % viability achieved; for Emax: Homo sapiens, 96 h
Procedure, shortened: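 A375 cells carrying BRAF V600E and NRAS Q61K were seeded at 250 cells/well with a 10-point half-log dose series (max 10 μM final). After 96 h at 37 °C, viability was read as ATP luminescence (CellTiter-Glo), background-subtracted and normalized to DMSO (100%). GI50 from 4-parameter fit; Emax is the lowest % viability.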

[1] = A375.10 cells, BRAF V600E, 2 hours, inflection point, read-out: HiBiT-Degradation A375.10 BRAF 2 hours IP
[2] = A375.10 cells, BRAF V600E, 2 hours, read-out: HiBiT-Degradation A375.10 BRAF 2 hours DC50
[3] = A375.10 cells, BRAF V600E, 2 hours, residual protein remaining
[4] = A375.10 cells, BRAF V600E, 2 hours, residual protein remaining, read-out: HiBiT-Degradation A375.10 BRAF 2 hours Emax
[5] = A375.10 cells, BRAF V600E, 6 hours, inflection point, read-out: HiBiT-Degradation A375.10 BRAF 6 hours IP
[6] = A375.10 cells, BRAF V600E, 6 hours, read-out: HiBiT-Degradation A375.10 BRAF 6 hours DC50
[7] = A375.10 cells, HiBiT, BRAF V600E, 24 hours, read-out: HiBiT-Degradation A375.10 BRAF 24 hours DC50
[8] = A375.10 cells, HiBiT, BRAF V600E, 24 hours, read-out: HiBiT-Degradation A375.10 BRAF 24 hours IP
[9] = A375.10 cells, BRAF V600E, 6 hours, residual protein remaining
[10] = A375.10 cells, HiBiT, BRAF V600E, 24 hours

T1 sequence (P15056 whole entry V600E): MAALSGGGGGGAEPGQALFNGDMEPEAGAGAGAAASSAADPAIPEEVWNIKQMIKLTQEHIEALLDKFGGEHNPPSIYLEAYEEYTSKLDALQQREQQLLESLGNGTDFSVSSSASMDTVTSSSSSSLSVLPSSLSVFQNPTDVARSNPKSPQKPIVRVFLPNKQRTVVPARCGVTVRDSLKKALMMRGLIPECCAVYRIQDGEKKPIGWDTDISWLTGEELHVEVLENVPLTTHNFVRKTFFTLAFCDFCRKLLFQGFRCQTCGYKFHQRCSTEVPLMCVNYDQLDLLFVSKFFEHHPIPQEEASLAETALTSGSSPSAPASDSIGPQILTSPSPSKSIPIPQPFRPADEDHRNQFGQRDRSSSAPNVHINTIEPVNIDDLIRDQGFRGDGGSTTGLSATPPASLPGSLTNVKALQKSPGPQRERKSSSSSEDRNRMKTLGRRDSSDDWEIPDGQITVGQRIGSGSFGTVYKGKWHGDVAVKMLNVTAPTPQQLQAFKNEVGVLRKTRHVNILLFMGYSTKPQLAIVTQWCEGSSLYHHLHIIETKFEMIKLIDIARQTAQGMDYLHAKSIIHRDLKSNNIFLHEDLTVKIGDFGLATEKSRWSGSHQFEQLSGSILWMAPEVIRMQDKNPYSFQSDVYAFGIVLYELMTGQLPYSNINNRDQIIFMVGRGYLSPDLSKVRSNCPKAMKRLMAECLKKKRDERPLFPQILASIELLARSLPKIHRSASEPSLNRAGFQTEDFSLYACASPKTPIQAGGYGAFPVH
T1 sequence (Q96SW2 whole entry): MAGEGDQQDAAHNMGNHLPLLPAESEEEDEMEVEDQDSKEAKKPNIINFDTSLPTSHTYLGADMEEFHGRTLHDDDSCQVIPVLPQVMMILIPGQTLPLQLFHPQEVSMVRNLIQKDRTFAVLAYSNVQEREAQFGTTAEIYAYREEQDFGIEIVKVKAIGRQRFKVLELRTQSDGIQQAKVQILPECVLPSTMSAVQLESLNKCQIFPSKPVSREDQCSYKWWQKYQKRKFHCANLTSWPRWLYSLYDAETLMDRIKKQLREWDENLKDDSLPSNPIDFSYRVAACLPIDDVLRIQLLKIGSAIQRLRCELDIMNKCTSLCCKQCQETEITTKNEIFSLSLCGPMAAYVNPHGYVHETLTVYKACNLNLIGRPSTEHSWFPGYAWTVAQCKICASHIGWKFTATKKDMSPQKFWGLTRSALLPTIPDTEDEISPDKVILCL
T1 sequence (Q16531 whole entry partner): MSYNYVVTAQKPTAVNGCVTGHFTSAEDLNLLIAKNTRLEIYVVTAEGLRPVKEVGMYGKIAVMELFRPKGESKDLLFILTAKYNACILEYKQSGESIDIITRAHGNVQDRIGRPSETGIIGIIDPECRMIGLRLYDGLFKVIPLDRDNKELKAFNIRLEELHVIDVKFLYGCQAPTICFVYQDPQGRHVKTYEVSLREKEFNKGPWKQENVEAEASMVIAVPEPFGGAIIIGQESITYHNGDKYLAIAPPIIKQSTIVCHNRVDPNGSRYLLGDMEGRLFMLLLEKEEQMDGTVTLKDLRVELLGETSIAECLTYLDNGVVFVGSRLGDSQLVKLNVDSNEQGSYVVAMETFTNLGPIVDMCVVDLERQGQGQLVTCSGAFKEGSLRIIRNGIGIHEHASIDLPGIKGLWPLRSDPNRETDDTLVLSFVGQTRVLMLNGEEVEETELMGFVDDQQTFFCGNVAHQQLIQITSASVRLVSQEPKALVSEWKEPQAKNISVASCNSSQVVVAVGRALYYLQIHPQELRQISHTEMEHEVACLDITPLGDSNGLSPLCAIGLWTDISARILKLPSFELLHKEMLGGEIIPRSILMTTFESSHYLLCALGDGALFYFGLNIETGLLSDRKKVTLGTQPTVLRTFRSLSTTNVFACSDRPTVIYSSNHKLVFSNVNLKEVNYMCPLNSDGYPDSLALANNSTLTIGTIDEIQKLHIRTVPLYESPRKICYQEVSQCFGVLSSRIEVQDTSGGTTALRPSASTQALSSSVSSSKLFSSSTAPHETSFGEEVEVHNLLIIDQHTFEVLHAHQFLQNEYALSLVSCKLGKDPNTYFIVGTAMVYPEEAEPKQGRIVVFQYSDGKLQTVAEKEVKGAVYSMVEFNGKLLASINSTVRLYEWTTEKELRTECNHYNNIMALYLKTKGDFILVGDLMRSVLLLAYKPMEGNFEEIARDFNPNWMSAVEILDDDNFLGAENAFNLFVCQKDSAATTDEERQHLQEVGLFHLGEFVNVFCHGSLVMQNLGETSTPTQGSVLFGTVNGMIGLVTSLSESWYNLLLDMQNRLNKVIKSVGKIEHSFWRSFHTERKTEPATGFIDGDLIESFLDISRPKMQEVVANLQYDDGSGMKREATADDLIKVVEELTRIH

SMILES	DC50 (BRAF V600E; [1])	DC50 (BRAF V600E; [2])	HiBiT-Degradation A375.10 BRAF 2 hours Emax (BRAF V600E; [3])	GI50 (A375-NRAS^Q61K cells)	CTGlo A375.11 96 hours Emax (A375-NRAS^Q61K cells)	Emax (BRAF V600E; [4])	Emax (A375-NRAS^Q61K cells)	DC50 (BRAF V600E; [5])	DC50 (BRAF V600E; [6])	Emax (BRAF V600E; A375.10 cells, BRAF V600E, 6 hours, residual protein remaining, read-out: HiBiT-Degradation A375.10 BRAF 6 hours Emax)	DC50 (BRAF V600E; [7])	Emax (BRAF V600E; A375.10 cells, HiBiT, BRAF V600E, 24 hours, read-out: HiBiT-Degradation A375.10 BRAF 24 hours Emax)	DC50 (BRAF V600E; [8])	HiBiT-Degradation A375.10 BRAF 6 hours Emax (BRAF V600E; [9])	HiBiT-Degradation A375.10 BRAF 24 hours Emax (BRAF V600E; [10])	HiBiT-Degradation A375.10 BRAF 2 hours Emax (BRAF V600E)
CCN(C)S(=O)(=O)Nc1ccc(F)c(Nc2ccc3ncn([C@H]4COC5(CCN(C6CCC(c7cc8c(cc7F)c(N7CCC(=O)NC7=O)nn8C)CC6)CC5)C4)c(=O)c3c2)c1C#N (single isomer, unassigned) [Compound 65]	< 1000 nM	1000 to 10000 nM	** (<90% and >50%)	> 10000 nM	** (<90% and >50%)											
CCN(C)S(=O)(=O)Nc1ccc(F)c(Nc2ccc3ncn([C@@H]4COC5(CCN(C6CCC(c7cc8c(cc7F)c(N7CCC(=O)NC7=O)nn8C)CC6)CC5)C4)c(=O)c3c2F)c1C#N (single isomer, unassigned) [Compound 68]	< 1000 nM	< 1000 nM		> 10000 nM		< 50%	< 50%									
CCN(C)S(=O)(=O)Nc1ccc(F)c(Nc2ccc3ncn([C@@H]4COC5(CCN(C6CCC(c7cc8c(cc7F)c(N7CCC(=O)NC7=O)nn8C)CC6)CC5)C4)c(=O)c3c2F)c1C#N (single isomer, unassigned) [Compound 69]	< 1000 nM	< 1000 nM	*** (<=50%)	< 1000 nM	*** (<=50%)			< 1000 nM	< 1000 nM	< 50%	< 1000 nM	< 50%	< 1000 nM			
CN(CCO)S(=O)(=O)Nc1ccc(F)c(Oc2ccc3ncn(C4CC5(CCN(C6CCC(c7ccc(NC8CCC(=O)NC8=O)cc7F)CC6)CC5)C4)c(=O)c3c2)c1C#N (single isomer, unassigned) [Compound 80, 6-[2-cyano-6-fluoro-3-[[2-hydroxyethyl(methyl)sulfamoyl]amino]phenoxy]-3-[7-[4-[4-[(2,6-dioxo-3-piperidyl)amino]-2-fluoro-phenyl]cyclohexyl]-7-azaspiro[3.5]nonan-2-yl]-4-oxo-quinazoline]	< 1000 nM	> 10000 nM	** (<90% and >50%)	> 10000 nM	** (<90% and >50%)											
CN(CCO)S(=O)(=O)Nc1ccc(F)c(Oc2ccc3ncn(C4CC5(CCN(C6CCC(c7cc8c(cc7F)c(N7CCC(=O)NC7=O)nn8C)CC6)CC5)C4)c(=O)c3c2)c1C#N (single isomer, unassigned) [Compound 82, 6-[2-cyano-6-fluoro-3-[[2-hydroxyethyl(methyl)sulfamoyl]amino]phenoxy]-3-[7-[4-[3-(2,4-dioxohexahydropyrimidin-1-yl)-5-fluoro-1-methyl-indazol-6-yl]cyclohexyl]-7-azaspiro[3.5]nonan-2-yl]-4-oxo-quinazoline]	< 1000 nM	1000 to 10000 nM	** (<90% and >50%)	1000 to 10000 nM	** (<90% and >50%)			< 1000 nM	< 1000 nM		< 1000 nM		< 1000 nM	*** (<=50%)	*** (<=50%)	
CCN(C)S(=O)(=O)Nc1ccc(F)c(Oc2ccc3ncn(C4CC5(CCN(C6CCC(c7cc8c(cc7F)c(N7CCC(=O)NC7=O)nn8C)CC6F)CC5)C4)c(=O)c3c2)c1C#N (single isomer, unassigned) [Compound 84, 6-[2-cyano-3-[[ethyl(methyl)sulfamoyl]amino]-6-fluoro-phenoxy]-3-[7-[4-[3-(2,4-dioxohexahydropyrimidin-1-yl)-5-fluoro-1-methyl-indazol-6-yl]-2-fluoro-cyclohexyl]-7-azaspiro[3.5]nonan-2-yl]-4-oxo-quinazoline]	< 1000 nM	< 1000 nM		1000 to 10000 nM	** (<90% and >50%)			< 1000 nM	< 1000 nM		< 1000 nM		< 1000 nM	*** (<=50%)	*** (<=50%)	*** (<=50%)
Cn1nc(N2CCC(=O)NC2=O)c2cc(F)c(C3CCC(N4CCC5(CC4)CC(n4cnc6ccc(Oc7c(F)ccc(NS(=O)(=O)C8CCCC8)c7C#N)cc6c4=O)C5)CC3)cc21 (single isomer, unassigned) [Compound 94, N-[2-cyano-3-[3-[7-[4-[3-(2,4-dioxohexahydropyrimidin-1-yl)-5-fluoro-1-methyl-indazol-6-yl]cyclohexyl]-7-azaspiro[3.5]nonan-2-yl]-4-oxo-quinazolin-6-yl]oxy-4-fluoro-phenyl]cyclopentanesulfonamide]	< 1000 nM	< 1000 nM		< 1000 nM	*** (<=50%)			< 1000 nM	< 1000 nM		< 1000 nM		< 1000 nM	*** (<=50%)	*** (<=50%)	*** (<=50%)
CC(C)S(=O)(=O)Nc1ccc(F)c(Oc2ccc3ncn(C4CC5(CCN(C6CCC(c7cc8c(cc7F)c(N7CCC(=O)NC7=O)nn8C)CC6)CC5)C4)c(=O)c3c2)c1C#N (single isomer, unassigned) [Compound 96, N-[2-cyano-3-[3-[7-[4-[3-(2,4-dioxohexahydropyrimidin-1-yl)-5-fluoro-1-methyl-indazol-6-yl]cyclohexyl]-7-azaspiro[3.5]nonan-2-yl]-4-oxo-quinazolin-6-yl]oxy-4-fluoro-phenyl]propane-2-sulfonamide]	< 1000 nM	< 1000 nM	*** (<=50%)	< 1000 nM				< 1000 nM	< 1000 nM		< 1000 nM		< 1000 nM	*** (<=50%)	*** (<=50%)	
CO[C@@H]1CCN(S(=O)(=O)Nc2ccc(F)c(Oc3ccc4ncn(C5CC6(CCN(C7CCC(c8cc9c(cc8F)c(N8CCC(=O)NC8=O)nn9C)CC7)CC6)C5)c(=O)c4c3)c2C#N)C1 (single isomer, unassigned) [Compound 102]	< 1000 nM	< 1000 nM	*** (<=50%)	< 1000 nM	*** (<=50%)			< 1000 nM	< 1000 nM		< 1000 nM		< 1000 nM	*** (<=50%)	*** (<=50%)	
CO[C@H]1CCN(S(=O)(=O)Nc2ccc(F)c(Oc3ccc4ncn(C5CC6(CCN(C7CCC(c8cc9c(cc8F)c(N8CCC(=O)NC8=O)nn9C)CC7)CC6)C5)c(=O)c4c3)c2C#N)C1 (single isomer, unassigned) [Compound 104]	< 1000 nM	< 1000 nM	*** (<=50%)	1000 to 10000 nM	** (<90% and >50%)			< 1000 nM	< 1000 nM		< 1000 nM		< 1000 nM	*** (<=50%)	*** (<=50%)	
CCN(C)S(=O)(=O)Nc1ccc(F)c(Oc2ccc3ncc(OCC4CCN(C5CCC(c6ccc(NC7CCC(=O)NC7=O)cc6F)CC5)CC4)nc3c2)c1C#N (single isomer, unassigned) [Compound 116, 7-[2-cyano-3-[[ethyl(methyl)sulfamoyl]amino]-6-fluoro-phenoxy]-2-[[1-[4-[4-[(2,6-dioxo-3-piperidyl)amino]-2-fluoro-phenyl]cyclohexyl]-4-piperidyl]methoxy]quinoxaline]	< 1000 nM	1000 to 10000 nM		> 10000 nM		50 to 90%	50 to 90%									
CCN(C)S(=O)(=O)Nc1ccc(F)c(Oc2ccc3ncc(OCC4CCN(C5CCC(c6ccc(NC7CCC(=O)NC7=O)cc6F)CC5)CC4)nc3c2)c1C#N (single isomer, unassigned) [Compound 117, 7-[2-cyano-3-[[ethyl(methyl)sulfamoyl]amino]-6-fluoro-phenoxy]-2-[[1-[4-[4-[(2,6-dioxo-3-piperidyl)amino]-2-fluoro-phenyl]cyclohexyl]-4-piperidyl]methoxy]quinoxaline]	< 1000 nM	< 1000 nM	*** (<=50%)	< 1000 nM	** (<90% and >50%)											
